Results from ChEMBL document CHEMBL5214955, “Design, synthesis and activity evaluation of Hedgehog inhibitor Itraconazole derivatives in A549 cells” (Bioorg Med Chem Lett, 2022).
pIC50: −log10 of the molar value. Calls of active or inactive are those of the source. The rule behind the calls is not given here.

What was measured:
[1] = system: A549; assay: Antiproliferative activity against human A549 cells assessed as inhibition of cell proliferation incubated for 48 hrs by MTT assay; assay type: functional, cell-based; settings: A549, 48 h
[2] = system: HepG2; assay: Antiproliferative activity against human HepG2 cells assessed as inhibition of cell proliferation incubated for 48 hrs by MTT assay; assay type: functional, cell-based; settings: HepG2, 48 h
[3] = Cytotoxicity against human L02 cells assessed as inhibition of cell proliferation incubated for 48 hrs by MTT assay; assay type: toxicity, cell-based
[4] = Inhibition of hedgehog signalling pathway in human A549 cells assessed as reduction in Gli gene expression incubated for 24 hrs by qPCR analysis; assay type: cell-based; settings: A549, 24 h
[5] = system: A549; assay: Induction of apoptosis in human A549 cells assessed as necrotic cells at 30 uM incubated for 24 hrs by Annexin V-FITC/PI staining based flow cytometric analysis (reference value: 0.084%); assay type: functional
[6] = system: A549; assay: Induction of apoptosis in human A549 cells assessed as early apoptotic cells at 30 uM incubated for 24 hrs by Annexin V-FITC/PI staining based flow cytometric analysis (reference value: 0.316%); assay type: functional
[7] = system: A549; assay: Induction of apoptosis in human A549 cells assessed as late apoptotic cells at 30 uM incubated for 24 hrs by Annexin V-FITC/PI staining based flow cytometric analysis (reference value: 1.40%); assay type: functional
[8] = system: A549; assay: Induction of apoptosis in human A549 cells assessed as viable cells at 30 uM incubated for 24 hrs by Annexin V-FITC/PI staining based flow cytometric analysis (reference value: 98.2%); assay type: functional; settings: read-out: Activity
[9] = system: A549; assay: Antiproliferative activity against human A549 cells assessed as inhibition of clone formation at 10 uM incubated for 1 day followed by culture in new medium for 7 days by crystal violet staining based assay relative to control; assay type: functional; design: scale not given: the % may be the effect or the level left; settings: time 8 day
[10] = system: A549; assay: Induction of intracellular reactive oxygen species production in human A549 cells assessed as increase in number ROS positive cells at 30 uM and measured after 24 hrs by H2DCFH-DA staining based flow cytometric analysis (Rvb=1.10%); assay type: functional
[11] = system: A549; assay: Induction of mitochondrial membrane potential loss in human A549 cells assessed as assessed as proportion of MMP decreased cells at 30 uM and measured after 24 hrs by JC-1 staining based flow cytometry assay (reference value: 7.50%); assay type: functional; design: scale not given: the % may be the effect or the level left
[12] = system: A549; assay: Induction of intracellular reactive oxygen species production in human A549 cells assessed as increase in number ROS positive cells at 30 uM and measured after 4 hrs by H2DCFH-DA staining based flow cytometric analysis; assay type: functional, cell-based
[13] = system: A549; assay: Induction of intracellular reactive oxygen species production in human A549 cells assessed as increase in number ROS positive cells at 30 uM and measured after 4 hrs by DCFH-DA probe based confocal microscopy; assay type: functional, cell-based
[14] = system: A549; assay: Induction of mitochondrial membrane potential loss in human A549 cells assessed as assessed as proportion of MMP decreased cells at 30 uM and measured after 4 hrs by JC-1 staining based flow cytometry assay; assay type: functional, cell-based

| Structure (SMILES) | pIC50 [1] | pIC50 [2] | IC50 at 48 h [3] | pIC50 [4] | Activity [5] | Activity [6] | Activity [7] | viability at 30 µM [8] | Activity [9] | Activity [10] | Activity [11] | Activity [12] | Activity [13] | Activity [14] |
| --- | --- | --- | --- | --- | --- | --- | --- | --- | --- | --- | --- | --- | --- | --- |
| O=C(Nc1ccc(N2CCN(c3ccc(OC[C@@H]4CO[C@@](Cn5cncn5)(c5ccc(Cl)cc5Cl)O4)cc3)CC2)cc1)c1cccc(F)c1 | 5.18 | 4.97 | > 50 µM |  |  |  |  |  |  |  |  |  |  |  |
| CCC(C)n1ncn(-c2ccc(N3CCN(c4ccc(OCC5COC(Cn6cncn6)(c6ccc(Cl)cc6Cl)O5)cc4)CC3)cc2)c1=O (stereo unspecified) [ITRACONAZOLE] | 5.52 | 5.10 | > 50 µM | 6.90 | 3.84% | 7.65% | 34.6% | 53.9% | 34% | 38.3% | 36.3% |  |  |  |
| CCCCC(=O)Nc1ccc(N2CCN(c3ccc(OC[C@@H]4CO[C@@](Cn5cncn5)(c5ccc(Cl)cc5Cl)O4)cc3)CC2)cc1 | 5.27 | 4.85 | > 50 µM |  |  |  |  |  |  |  |  |  |  |  |
| O=C(CC1CCOCC1)Nc1ccc(N2CCN(c3ccc(OC[C@@H]4CO[C@@](Cn5cncn5)(c5ccc(Cl)cc5Cl)O4)cc3)CC2)cc1 | 5.00 | 4.68 | > 50 µM |  |  |  |  |  |  |  |  |  |  |  |
| O=C(CCCCc1ccccc1)Nc1ccc(N2CCN(c3ccc(OC[C@@H]4CO[C@@](Cn5cncn5)(c5ccc(Cl)cc5Cl)O4)cc3)CC2)cc1 | 5.58 | 5.15 | > 50 µM | 6.34 |  |  |  |  |  |  |  |  |  |  |
| O=C(CCc1ccccc1)Nc1ccc(N2CCN(c3ccc(OC[C@@H]4CO[C@@](Cn5cncn5)(c5ccc(Cl)cc5Cl)O4)cc3)CC2)cc1 | 5.69 | 5.27 | > 50 µM | 7.05 | 1.07% | 12.4% | 51.8% | 34.7% | 22% | 62.9% | 55.4% | Active | Active | Active |
| O=C(CCCc1ccccc1)Nc1ccc(N2CCN(c3ccc(OC[C@@H]4CO[C@@](Cn5cncn5)(c5ccc(Cl)cc5Cl)O4)cc3)CC2)cc1 | 5.42 | 4.97 | > 50 µM | 6.11 |  |  |  |  |  |  |  |  |  |  |
| O=C(Nc1ccc(N2CCN(c3ccc(OC[C@@H]4CO[C@@](Cn5cncn5)(c5ccc(Cl)cc5Cl)O4)cc3)CC2)cc1)c1cccs1 | 5.36 | 5.01 | > 50 µM |  |  |  |  |  |  |  |  |  |  |  |
| CCC(=O)Nc1ccc(N2CCN(c3ccc(OC[C@@H]4CO[C@@](Cn5cncn5)(c5ccc(Cl)cc5Cl)O4)cc3)CC2)cc1 | 5.59 | 5.26 | > 50 µM | 6.06 |  |  |  |  |  |  |  |  |  |  |
| O=C(Nc1ccc(N2CCN(c3ccc(OC[C@@H]4CO[C@@](Cn5cncn5)(c5ccc(Cl)cc5Cl)O4)cc3)CC2)cc1)c1ccco1 | 4.98 | 4.65 | > 50 µM |  |  |  |  |  |  |  |  |  |  |  |
| O=C(Cc1cccs1)Nc1ccc(N2CCN(c3ccc(OC[C@@H]4CO[C@@](Cn5cncn5)(c5ccc(Cl)cc5Cl)O4)cc3)CC2)cc1 | 5.67 | 5.30 | > 50 µM | 6.60 | 1.89% | 7.54% | 46.1% | 44.5% | 28% | 53% | 44.9% | Active | Active | Active |
| CCCC(=O)Nc1ccc(N2CCN(c3ccc(OC[C@@H]4CO[C@@](Cn5cncn5)(c5ccc(Cl)cc5Cl)O4)cc3)CC2)cc1 | 5.52 | 5.00 | > 50 µM |  |  |  |  |  |  |  |  |  |  |  |
| O=C(Nc1ccc(N2CCN(c3ccc(OC[C@@H]4CO[C@@](Cn5cncn5)(c5ccc(Cl)cc5Cl)O4)cc3)CC2)cc1)c1ccc(F)c(F)c1 | 5.06 | 4.70 | > 50 µM | 6.07 |  |  |  |  |  |  |  |  |  |  |
| Cc1ccc(C(=O)Nc2ccc(N3CCN(c4ccc(OC[C@@H]5CO[C@@](Cn6cncn6)(c6ccc(Cl)cc6Cl)O5)cc4)CC3)cc2)o1 | 5.32 | 5.06 | > 50 µM |  |  |  |  |  |  |  |  |  |  |  |
